Drawing on US8940898B2, “Piperidinyl alkyne orexin receptor antagonists” (Merck Sharp & Dohme Corp., priority 2011, dated 2015), this text covers Ki for five compounds.

Where only a bound is given, the exact number is not on record here.

One experiment deals with T1, human orexin-2 receptor (Homo sapiens, UniProt O43614).
T1 construct: expressed in transfected cells; host or cells: CHO cells (membranes)
T1 sequence (O43614 1-444): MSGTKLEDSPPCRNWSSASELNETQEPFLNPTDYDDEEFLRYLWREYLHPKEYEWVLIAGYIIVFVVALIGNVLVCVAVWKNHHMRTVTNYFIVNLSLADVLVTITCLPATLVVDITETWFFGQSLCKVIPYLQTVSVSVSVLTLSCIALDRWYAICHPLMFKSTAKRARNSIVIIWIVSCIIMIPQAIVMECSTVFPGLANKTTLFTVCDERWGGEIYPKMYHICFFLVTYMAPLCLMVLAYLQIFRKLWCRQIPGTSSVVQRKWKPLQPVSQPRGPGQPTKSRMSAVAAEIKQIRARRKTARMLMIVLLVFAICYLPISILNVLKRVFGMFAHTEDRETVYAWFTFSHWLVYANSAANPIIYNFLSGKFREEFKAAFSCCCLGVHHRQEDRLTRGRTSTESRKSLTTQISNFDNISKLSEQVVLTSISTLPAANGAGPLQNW
Description: radioligand binding assay, OX2 receptor (hOX2 Bind hKi). The settings on record: membranes from CHO cells expressing the OX2 receptor. Here is the method:
The utility of the compounds in accordance with the present invention as orexin receptor OX1R and/or OX2R antagonists may be readily determined without undue experimentation by methodology well known in the art, including the “FLIPR Ca^2+ Flux Assay” (Okumura et al., Biochem. Biophys. Res. Comm. 280:976-981, 2001). In a typical experiment the OX1 and OX2 receptor antagonistic activity of the compounds of the present invention was determined in accordance with the following experimental method. For intracellular calcium measurements, Chinese hamster ovary (CHO) cells expressing the rat orexin-1 receptor or the human orexin-2 receptor, are grown in Iscove's modified DMEM containing 2 mM L-glutamine, […], 1% hypoxanthine-thymidine supplement, 100 U/ml penicillin, 100 μg/ml streptomycin and 10% heat-inactivated fetal calf serum (FCS). The cells are seeded at 20,000 cells/well into Becton-Dickinson black 384-well clear bottom sterile plates coated with poly-D-lysine. All reagents were from GIBCO-Invitrogen Corp. The seeded plates are incubated overnight at 37° C. and 5% CO2. Ala-6,12 human orexin-A as the agonist is prepared as a 1 mM stock solution in 1% bovine serum albumin (BSA) and diluted in assay buffer (HBSS containing 20 mM HEPES, 0.1% BSA and 2.5 mM probenecid, pH7.4) for use in the assay at a final concentration of 70 pM. Test compounds are prepared as 10 mM stock solution in DMSO, then diluted in 384-well plates, first in DMSO, then assay buffer. On the day of the assay, cells are washed 3 times with 100 μl assay buffer and then incubated for 60 min (37° C., 5% CO2) in 60 μl assay buffer containing 1 μM Fluo-4AM ester, 0.02% pluronic acid, and 1% BSA. The dye loading solution is then aspirated and cells are washed 3 times with 100 μl assay buffer. 30 μl of that same buffer is left in each well. Within the Fluorescent Imaging Plate Reader (FLIPR, Molecular Devices), test compounds are added to the plate in a volume of 25 μl, incubated for 5 min and finally 25 μl of agonist is added. Fluorescence is measured for each well at 1 second intervals for 5 minutes and the height of each fluorescence peak is compared to the height of the fluorescence peak induced by […] Ala-6,12 orexin-A with buffer in place of antagonist. For each antagonist, IC50 value (the concentration of compound needed to inhibit 50% of the agonist response) is determined. Alternatively, compound potency can be assessed by a radioligand binding assay (described in Bergman et. al. Bioorg. Med. Chem. Lett. 2008, 18, 1425-1430) in which the inhibition constant (Ki) is determined in membranes prepared from CHO cells expressing either the OX1 or OX2 receptor. The intrinsic orexin receptor antagonist activity of a compound which may be used in the present invention may be determined by these assays. The following tables show representative data for the compounds of the Examples as orexin receptor antagonists as determined by the foregoing assays wherein the hOX2 Ki is a measure of the ability of the test compound to inhibit the action of the human orexin-2 receptor and the hOX1R is a measure of the ability of the test compound to inhibit the action of the rat orexin-1 receptor.

Another experiment has as its target T2, hOX1 (orexin-1 receptor) (Homo sapiens, UniProt O43613).
T2 construct: expressed in transfected cells; host or cells: CHO cells (membranes)
T2 sequence (O43613 1-425): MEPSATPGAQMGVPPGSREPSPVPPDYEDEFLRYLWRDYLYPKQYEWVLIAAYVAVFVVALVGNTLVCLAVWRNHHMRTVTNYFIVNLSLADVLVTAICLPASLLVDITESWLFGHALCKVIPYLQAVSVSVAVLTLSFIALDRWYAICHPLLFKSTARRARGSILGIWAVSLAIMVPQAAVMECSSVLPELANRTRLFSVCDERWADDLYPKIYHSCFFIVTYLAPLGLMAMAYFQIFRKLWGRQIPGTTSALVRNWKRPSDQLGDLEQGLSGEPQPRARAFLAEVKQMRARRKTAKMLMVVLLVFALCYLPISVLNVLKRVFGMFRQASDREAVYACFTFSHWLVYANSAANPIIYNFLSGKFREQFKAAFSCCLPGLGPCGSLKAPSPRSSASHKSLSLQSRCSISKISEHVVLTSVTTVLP
The experiment can be described thus: radioligand binding assay, OX1 receptor (hOX1 Bind hKi). The settings on record: membranes from CHO cells expressing the OX1 receptor.

Take `Cc1nc(C(=O)N2CCCCC2C#Cc2ccc(F)cn2)c(-c2ccccc2)s1` (stereo not shown) [Example 22, 5-fluoro-2-({1-[(2-methyl-5-phenyl-1,3-thiazol-4-yl)carbonyl]piperidin-2-yl}ethynyl)pyridine]: the values for the Ki on human orexin-2 receptor and on hOX1 (orexin-1 receptor) were greater than 2300 nM and greater than 2710 nM, respectively.
The like results for `Cc1nc(C(=O)N2CCCCC2C#Cc2ccc(F)cc2)c(-c2ccccc2)s1` (stereo not shown) [Example 23, 2-[(4-fluorophenyl)ethynyl]-1-[(2-methyl-5-phenyl-1,3-thiazol-4-yl)carbonyl]piperidine] were, in that order, 721 nM and 186 nM.
The like results for `Cc1nc(C(=O)N2CCCCC2C#Cc2ccc3ccccc3n2)c(-c2ccccc2)s1` (stereo not shown) [Example 24, 2-({1-[(2-methyl-5-phenyl-1,3-thiazol-4-yl)carbonyl]piperidin-2-yl}ethynyl)quinoline] were, in that order, greater than 754 nM and 233 nM.
The corresponding values for `Cc1nc(C(=O)N2CCCCC2C#Cc2cc3ccccc3cn2)c(-c2ccccc2)s1` (stereo not shown) [Example 25, 3-({1-[(2-methyl-5-phenyl-1,3-thiazol-4-yl)carbonyl]piperidin-2-yl}ethynyl)isoquinoline] are greater than 100 nM and greater than 364 nM.
For `Cc1nc(C(=O)N2CCCCC2C#Cc2cnc3ccccc3c2)c(-c2ccccc2)s1` (stereo not shown) [Example 26, 3-({1-[(2-methyl-5-phenyl-1,3-thiazol-4-yl)carbonyl]piperidin-2-yl}ethynyl)quinoline], the Ki is greater than 6120 nM on human orexin-2 receptor and greater than 1600 nM at hOX1 (orexin-1 receptor).

One may read the Ki as the dissociation constant of the complex between target and ligand, obtained from inhibition or displacement. A high value points to weaker binding.
